Experimental data taken from patent US7557121B2, “Tetrahydronaphthyridine derivatives” (Pfizer Inc, priority 2004, dated 2009).

What was measured:
[1] = biological target: T1, human histamine H3 receptor (Homo sapiens, UniProt Q9Y5N1); experiment: H3 cell based functional assay (cAMP through β-lactamase reporter gene activity); details: functional Ki from antagonist IC50 by Cheng-Prussoff; HEK-293 cells, 10 μM forskolin, 1 nM imetit
T1 construct: expressed in transfected cells; host or cells: HEK-293 cells expressing a CRE β-lactamase reporter gene
T1 sequence (Q9Y5N1 whole entry): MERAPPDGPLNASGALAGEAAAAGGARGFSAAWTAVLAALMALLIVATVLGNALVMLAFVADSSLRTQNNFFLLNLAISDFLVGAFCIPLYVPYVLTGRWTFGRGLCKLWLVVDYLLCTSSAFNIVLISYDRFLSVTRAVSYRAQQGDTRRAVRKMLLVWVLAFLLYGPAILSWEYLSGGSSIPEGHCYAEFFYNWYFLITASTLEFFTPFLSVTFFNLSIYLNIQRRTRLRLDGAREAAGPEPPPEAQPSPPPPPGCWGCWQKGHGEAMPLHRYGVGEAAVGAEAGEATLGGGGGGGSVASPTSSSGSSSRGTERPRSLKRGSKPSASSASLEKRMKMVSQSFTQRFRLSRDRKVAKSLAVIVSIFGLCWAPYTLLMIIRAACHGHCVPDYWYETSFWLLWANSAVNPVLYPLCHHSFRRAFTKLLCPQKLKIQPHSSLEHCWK
Method: H3 Cell Based Functional Assay Compounds were evaluated using a cell based functional assay measuring cAMP through β-lactamase reporter gene activity. A stable cell line was generated from HEK-293 cells expressing a CRE β-lactamase reporter gene and transfected with human histamine H3 receptor cDNA. Cells were seeded at a density of 500,000 cells/ml, and grown overnight in MEM (Invitrogen) supplemented with 1% dialysed FBS (Sigma), 2 mM glutamine (Sigma), 1 mM sodium pyruvate (Sigma), 0.1 mM non essential amino acids (Invitrogen) and 25 mM HEPES (Sigma) in poly D lysine coated 384 well plates (BD Biosciences).

[2] = biological target: T2, hERG (Homo sapiens, UniProt Q12809); experiment: Radioligand binding assay for [3H]-dofetilide binding to the hERG product expressed in HEK-293S cells; details: human, membranes of HEK-293S cells expressing hERG, pH 7.4, probe [3H]-dofetilide (3H-UK068798); displacement of 3H-UK068798 (~5 nM) from membranes of hERG expressing HEK-293S cells; Cheng-Prusoff
T2 construct: host or cells: HEK-293S cells (membranes)
T2 sequence (Q12809 whole entry): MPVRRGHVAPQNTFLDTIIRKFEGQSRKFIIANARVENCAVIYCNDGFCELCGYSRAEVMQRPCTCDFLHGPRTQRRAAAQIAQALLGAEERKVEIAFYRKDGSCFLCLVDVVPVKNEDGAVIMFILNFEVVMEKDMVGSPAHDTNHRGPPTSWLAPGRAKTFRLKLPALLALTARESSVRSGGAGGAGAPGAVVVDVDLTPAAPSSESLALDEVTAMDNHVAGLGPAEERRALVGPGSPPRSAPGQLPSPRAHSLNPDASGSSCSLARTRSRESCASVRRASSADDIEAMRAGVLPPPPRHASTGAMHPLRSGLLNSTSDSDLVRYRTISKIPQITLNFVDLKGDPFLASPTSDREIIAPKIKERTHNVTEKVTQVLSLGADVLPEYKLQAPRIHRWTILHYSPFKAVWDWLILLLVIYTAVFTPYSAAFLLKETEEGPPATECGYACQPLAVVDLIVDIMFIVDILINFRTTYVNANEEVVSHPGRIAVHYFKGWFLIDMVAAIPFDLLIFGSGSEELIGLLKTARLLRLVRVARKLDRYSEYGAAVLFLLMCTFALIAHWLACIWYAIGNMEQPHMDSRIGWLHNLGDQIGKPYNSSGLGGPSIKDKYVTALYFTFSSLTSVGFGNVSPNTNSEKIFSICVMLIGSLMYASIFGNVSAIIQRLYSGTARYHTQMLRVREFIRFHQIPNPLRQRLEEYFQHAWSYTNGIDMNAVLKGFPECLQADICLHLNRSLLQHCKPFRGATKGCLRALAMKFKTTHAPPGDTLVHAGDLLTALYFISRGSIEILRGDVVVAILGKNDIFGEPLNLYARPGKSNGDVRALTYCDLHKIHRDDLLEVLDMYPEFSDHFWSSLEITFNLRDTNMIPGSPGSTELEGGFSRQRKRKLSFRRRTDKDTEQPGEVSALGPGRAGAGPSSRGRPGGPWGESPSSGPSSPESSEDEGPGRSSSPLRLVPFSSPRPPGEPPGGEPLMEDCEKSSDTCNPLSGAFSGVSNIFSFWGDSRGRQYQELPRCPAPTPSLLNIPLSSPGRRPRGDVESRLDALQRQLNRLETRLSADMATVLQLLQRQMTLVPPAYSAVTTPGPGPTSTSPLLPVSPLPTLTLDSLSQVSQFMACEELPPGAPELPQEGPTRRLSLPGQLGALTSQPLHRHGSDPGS
Method: (§1) A Radioligand Binding Assay for [^3H]-dofetilide Binding to the hERG Product Expressed in HEK-293S Cells
(§2) hERG expressing HEK-293S cells were obtained from University of Wisconsin and membranes prepared according to standard protocols. Membranes were diluted in assay buffer, consisting of Tris-HCl 50 mM; KCl 10 mM; MgCl2 1 mM pH 7.4 with NaOH, and were pre-coupled with 120 mg/ml YSi polylysine Scintillation Proximity Beads in a ratio of 16 ug protein to 1 mg bead for 2 hours at 4° C. The coupled beads were separated from uncoupled protein by centrifugation and re-suspended in cold assay buffer to give a working solution of 6.25 mgs/ml. 20 μl of test compound was added to a 96-well microtiteplate at a final assay top concentration of 10 μM in serial ½ log dilutions (1 in 3.162) to generate at 10 point IC50 curve. 20 μl of ^3H-UK068798 (Dofetilide, Amersham; specific activity 78-83 Ci/mmole) was placed in each well of a 96 well plate to a final assay concentration of ˜5 nM. To this, 160 μl of bead/membrane mixture was added. The assay plates were shaken for 1 hour at room temperature and incubated for a further 30 minutes at room temperature for beads to settle. The plates were then read on a Packard TopCount NXT. The percentage displacement of ^3H-UK068798 was calculated using 0% as defined by 1% DMSO vehicle in well and 100% as defined by 10 μM UK-068798. Dose response curves were fitted using a four parameter logistical fit and the Ki value was derived using the Cheng-Prusoff equation (Cheng, Y. C. & Prusoff, W. H. (1973). Biochem. Pharmacol., 22, 3099-3108. )

[3] = biological target: T3, hERG product (Homo sapiens, UniProt Q12809); experiment: as above; details: displacement of 3H-UK068798 (~5 nM) from membranes of hERG expressing HEK-293S cells; Cheng-Prusoff
T3 construct: host or cells: HEK-293S cells (membranes)
T3 sequence (Q12809 whole entry): as above
Method: as §1, §2

Ki [1] | Compound | Ki at 1.5 h [2] | Ki [3]
0.00828 µM | CNC(=O)c1ccc(N2CCc3nc(OCCCN4CCC[C@H]4C)ccc3C2)nc1 [Example 68, N-Methyl-6-[2-{3-[(2R)-2-methylpyrrolidin-1-yl]propoxy}-7,8-dihydro-1,6-naphthyridin-6(5H)-yl]nicotinamide] | 100 µM | 
0.00916 µM | C[C@@H]1CCCN1CCCOc1ccc2c(n1)CCN(c1cccnn1)C2 [Example 22, 2-{3-[(2R)-2-methylpyrrolidin-1-yl]propoxy}-6-pyridazin-3-yl-5,6,7,8-tetrahydro-1,6-naphthyridine] |  | 51.8 µM
0.0145 µM | NC(=O)c1ccc(N2CCc3nc(OCCCN4CCCCC4)ccc3C2)nc1 [Example 48, 6-[2-(3-piperidin-1-ylpropoxy)-7,8-dihydro-1,6-naphthyridin-6(5H)-yl]nicotinamide] | 100 µM | 
0.0163 µM | CNC(=O)c1ccc(N2CCc3nc(OCCCN4CCCC4)ccc3C2)cn1 [Example 65, N-Methyl-5-[2-(3-pyrrolidin-1-ylpropoxy)-7,8-dihydro-1,6-naphthyridin-6(5H)-yl]pyridine-2-carboxamide] |  | 46.1 µM
0.0198 µM | c1cnnc(N2CCc3nc(OCCCN4CCCCC4)ccc3C2)c1 [Example 29, 2-(3-piperidin-1-ylpropoxy)-6-pyridazin-3-yl-5,6,7,8-tetrahydro-1,6-naphthyridine] |  | 64.4 µM
0.00467 µM | CNC(=O)c1ccc(N2CCc3nc(OCCCN4CCC[C@H]4C)ccc3C2)cn1 [Example 64, N-Methyl-5-[2-{3-[(2R)-2-methylpyrrolidin-1-yl]propoxy}-7,8-dihydro-1,6-naphthyridin-6(5H)-yl]pyridine-2-carboxamide] |  | 55.5 µM
0.0197 µM | CN(C)C(=O)c1ccc(N2CCc3nc(OCCCN4CCCC4)ccc3C2)cn1 [Example 67, N,N-Dimethyl-5-[2-(3-pyrrolidin-1-ylpropoxy)-7,8-dihydro-1,6-naphthyridin-6(5H)-yl]pyridine-2-carboxamide] | 100 µM | 
0.0103 µM | C[C@@H]1CCCN1CCCOc1ccc2c(n1)CCN(c1cnccn1)C2 [Example 23, 2-{3-[(2R)-2-methylpyrrolidin-1-yl]propoxy}-6-pyrazin-2-yl-5,6,7,8-tetrahydro-1,6-naphthyridine] |  | 11.5 µM
0.00524 µM | C[C@H]1CCCN1CCCOc1ccc2c(n1)CCN(c1cnccn1)C2 [Example 26, 2-{3-[(2S)-2-methylpyrrolidin-1-yl]propoxy}-6-pyrazin-2-yl-5,6,7,8-tetrahydro-1,6-naphthyridine] |  | 9.88 µM
0.00486 µM | Cc1ccc(N2CCc3nc(OC4CCN(C(C)C)CC4)ccc3C2)cn1 [Example 72, 2-[(1-isoproplpiperidin-4-yl)oxy]-6-(6-methylpyridin-3-yl)-5,6,7,8-tetrahydro-1,6-naphthyridine] |  | 13.7 µM
0.00632 µM | CNC(=O)c1ccc(N2CCc3nc(OC4CCN(C(C)C)CC4)ccc3C2)nc1 [Example 70, 6-[2-[(1-Isopropylpiperidin4-yl)oxy]-7,8-dihydro-1,6-naphthyridin-6(5H)-yl]-N-methylnicotinamide] |  | 94.4 µM
0.0181 µM | CNC(=O)c1ccc(N2CCc3nc(OCCCN4CCCC4)ccc3C2)nc1 [Example 44, N-methyl-6-[2-(3-pyrrolidin-1-ylpropoxy)-7,8-dihydro-1,6-naphthyridin-6(5H)-yl]nicotinamide] |  | 85.8 µM
0.0137 µM | CC(C)N1CCC(Oc2ccc3c(n2)CCN(c2cnccn2)C3)CC1 [Example 71, 2-[(1-Isopropylpiperidin-4-yl)oxy]-6-pyrazin-2-yl-5,6,7,8-tetrahydro-1,6-naphthyridine] |  | 22.9 µM
0.00821 µM | Cc1ccc(N2CCc3nc(OCCCN4CCC[C@H]4C)ccc3C2)cn1 [Example 24, 6-(6-methylpyridin-3-yl)-2-{3-[(2R)-2-methylpyrrolidin-1-yl]propoxy}-5,6,7,8-tetrahydro-1,6-naphthyridine] |  | 35.6 µM
0.00556 µM | C[C@H]1CCCN1CCCOc1ccc2c(n1)CCN(c1cccnn1)C2 [Example 25, 2-{3-[(2S)-2-methylpyrrolidin-1-yl]propoxy}-6-pyridazin-3-yl-5,6,7,8-tetrahydro-1,6-naphthyridine] |  | 55.9 µM
